Measurements as given in EP3952873B1 (priority 2019, dated 2020).
“Also recorded” adds a separate entry of the source.

What was measured:
[1] = biological target: T1, GHB high-affinity binding site/CaMK2a (Rattus norvegicus, UniProt P11275); assay: Rat brain membrane [3H]NCS-382 binding assay; settings: 16 nM [3H]NCS-382, rat cortical synaptic membranes, pH 6.0, 0-4 °C
T1 construct: rat (Sprague-Dawley) cortical synaptic membranes (P2 synaptosomes) were prepared; from tissue; host or cells: rat (Sprague-Dawley) cortical synaptic membranes (P2 synaptosomes)
T1 sequence (P11275 whole entry): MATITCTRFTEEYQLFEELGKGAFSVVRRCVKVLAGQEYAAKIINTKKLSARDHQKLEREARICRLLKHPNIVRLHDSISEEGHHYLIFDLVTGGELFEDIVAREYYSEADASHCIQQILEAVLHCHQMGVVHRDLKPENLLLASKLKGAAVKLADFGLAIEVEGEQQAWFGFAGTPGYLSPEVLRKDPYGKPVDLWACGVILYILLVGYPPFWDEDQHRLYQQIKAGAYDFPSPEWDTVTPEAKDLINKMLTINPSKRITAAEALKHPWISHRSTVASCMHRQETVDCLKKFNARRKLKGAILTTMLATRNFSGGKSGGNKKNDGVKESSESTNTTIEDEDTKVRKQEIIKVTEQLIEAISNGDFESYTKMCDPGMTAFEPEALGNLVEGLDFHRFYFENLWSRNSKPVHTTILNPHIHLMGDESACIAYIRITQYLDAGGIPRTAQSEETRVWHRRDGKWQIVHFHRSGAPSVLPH
Method: According to previously published protocols, rat (Sprague-Dawley) cortical synaptic membranes (P2 synaptosomes) were prepared and stored at -20 °C until the day of assay (Wellendorph et al., 2005). Membranes were then washed three times with binding buffer (50 mM potassium phosphate buffer pH 6.0). The binding protocol was performed in 96-well microplates. In brief, compounds were incubated with 16 nM [^3H]NCS-382 radioligand and membranes for 60 min at 0-4 °C, filtered through GF/C filter plates (PerkinElmer) using a 96-well harvester (Packard), rapidly washed three times with ice-cold binding buffer, and filter plates dried. CPM values were determined using liquid scintillation counting in a TopCount NXT Microplate Scintillation & Luminescence Counter (PerkinElmer). Curves were generated using non-linear regression (GraphPad Prism 7, GraphPad Prism Software, San Diego, CA, USA).
JON-11, related analogues, and pro-JON-11(10) were tested in the [^3H]NCS-382 binding assay (Wellendorph et al., 2005).

[2] = biological target: T2, recombinant CaMK2a (Rattus norvegicus, UniProt P11275); assay: [3H]HOCPCA binding to recombinant CaMK2a expressed in HEK293T cells
T2 construct: host or cells: HEK293T
T2 sequence (P11275 whole entry): as above
Method: Protein concentration was determined using the Bradford protein assay. […] The dried filters were added scintillation liquid and radioactivity measured on a Tricarb 2100 Scintillation counter (Packard).

[3] = assay type: in vitro ADME, mouse; settings: during the metabolic stability study
Method: Metabolic stability analysis was performed on a Bruker Avance Ultra High Performance Liquid Chromatography (UHPLC) (Bruker Daltonik, Bremen, Germany) equipped with a CTC-PAL-xt autosampler with cooled sample compartments (10 °C) and a column oven held at 40 °C. The UHPLC eluate was directed to a Bruker Evoq Elite triple quad-ropole MS equipped with a heated electrospray ionization source operated in positive ionization mode. Separation of 15 µL sample was obtained using a Phenomenex (Phenomenex, Torrance, CA, USA) Kinetex XB-C18 column (50 mm × 2.1 mm i.d., 1.7 µm particle size) equipped with a guard column. The analytes were separated using a solvent system consisting of water/acetonitrile (95:5, v/v) (eluent A) and water/acetonitrile (5:95, v/v) (eluent B); both acidified with 0.1% formic acid. The eluent flow rate was maintained at 0.4 mL/min with the following gradient elution profile: 0 min: 0% B; 5 min: 100% B; 6 min: 100% B, followed by three min equilibration at 0% B. Two ion transitions were monitored for all analytes and internal standard.
The mouse liver microsome assay was performed by transferring 25 µL of a 20 µM solution of the test compound (0.5% DMSO), dissolved in potassium phosphate monobasic buffer (pH 7.4) containing 3 mM MgCl2, to 9 wells in a microtiter plate. To each well, […] of a 0.5 mg/mL mouse liver (Sigma Aldrich) in buffer was added, and the microtiter plate were pre-incubated for 5 min at 37 °C in a plate shaker at 600 rpm. After pre-incubation, 50 µL 37 °C NADPH regenerating system, consisting of 2 mM NADP+, 10mM glucose-6-phosphate, and 2 U/mL glucose-6-phosphate dehydrogenase dissolved in buffer, was added to start the assay. In triplicates, immediately after adding the NADPH solution, 75 µL was transferred to an Eppendorf tube, containing […] ice-cold acetonitrile with 400 ng/mL internal standard (7). Similarly, samples were prepared after 30 min and 60 min incubation at 37 °C. The samples were vortexed for 30 seconds and centrifuged at 16,000 × g for 10 minutes before analyzing the supernatant. The individual analyte responses were normalized to the internal standard. Diazepam was used as positive control.
The mouse […] assay was performed by transferring 75 µL of a 10 µM solution of the test compound (0.5% DMSO), dissolved in PBS buffer (pH 7.4), to 9 wells in a microtiter plate. To each well, 75 µL mouse plasma, harvested from in-house mice into K2-EDTA tubes and centrifuged at 1,600 × g, was added. […]
The metabolic stabilities of JON-11 and the prodrugs 1a, 8-12, 19 and 20 were determined in vitro in rat plasma and rat liver microsomes. […] The corresponding loss of prodrug compounds and formation of parent drug JON-11 was determined by UHPLC-MS.

[4] = biological target: T3, GABAB receptor (Rattus norvegicus, UniProt Q9Z0U4); assay: GABAB binding assay with [3H]GABA, rat brain synaptic membranes; settings: at 100 µM
T3 construct: from tissue; host or cells: rat brain synaptic membranes
T3 sequence (Q9Z0U4 20-960): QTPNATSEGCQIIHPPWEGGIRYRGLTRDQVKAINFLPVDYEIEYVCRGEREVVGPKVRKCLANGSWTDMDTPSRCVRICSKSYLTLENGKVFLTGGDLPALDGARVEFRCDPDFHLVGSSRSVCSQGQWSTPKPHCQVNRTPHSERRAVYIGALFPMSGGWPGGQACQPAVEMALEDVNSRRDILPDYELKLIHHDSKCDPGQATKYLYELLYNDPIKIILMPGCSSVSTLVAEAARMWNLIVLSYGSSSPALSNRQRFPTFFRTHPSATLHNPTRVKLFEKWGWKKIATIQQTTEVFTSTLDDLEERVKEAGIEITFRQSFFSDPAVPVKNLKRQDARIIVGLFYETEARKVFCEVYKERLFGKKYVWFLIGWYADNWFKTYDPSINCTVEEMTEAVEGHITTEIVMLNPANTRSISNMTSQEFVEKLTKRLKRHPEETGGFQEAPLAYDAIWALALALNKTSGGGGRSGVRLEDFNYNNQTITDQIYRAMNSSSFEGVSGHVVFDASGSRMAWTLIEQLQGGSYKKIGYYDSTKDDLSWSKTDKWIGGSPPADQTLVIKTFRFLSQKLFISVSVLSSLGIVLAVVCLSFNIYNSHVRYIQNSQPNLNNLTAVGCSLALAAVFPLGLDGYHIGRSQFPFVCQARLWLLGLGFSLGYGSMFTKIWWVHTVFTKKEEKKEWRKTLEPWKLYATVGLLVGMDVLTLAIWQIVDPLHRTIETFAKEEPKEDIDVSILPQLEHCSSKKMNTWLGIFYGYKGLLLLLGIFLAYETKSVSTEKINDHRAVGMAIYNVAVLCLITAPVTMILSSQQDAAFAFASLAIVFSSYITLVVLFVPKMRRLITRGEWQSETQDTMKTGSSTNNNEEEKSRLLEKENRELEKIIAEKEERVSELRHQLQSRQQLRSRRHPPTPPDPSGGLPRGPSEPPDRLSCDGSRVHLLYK
T3 sequence (O88871 41-940 partner): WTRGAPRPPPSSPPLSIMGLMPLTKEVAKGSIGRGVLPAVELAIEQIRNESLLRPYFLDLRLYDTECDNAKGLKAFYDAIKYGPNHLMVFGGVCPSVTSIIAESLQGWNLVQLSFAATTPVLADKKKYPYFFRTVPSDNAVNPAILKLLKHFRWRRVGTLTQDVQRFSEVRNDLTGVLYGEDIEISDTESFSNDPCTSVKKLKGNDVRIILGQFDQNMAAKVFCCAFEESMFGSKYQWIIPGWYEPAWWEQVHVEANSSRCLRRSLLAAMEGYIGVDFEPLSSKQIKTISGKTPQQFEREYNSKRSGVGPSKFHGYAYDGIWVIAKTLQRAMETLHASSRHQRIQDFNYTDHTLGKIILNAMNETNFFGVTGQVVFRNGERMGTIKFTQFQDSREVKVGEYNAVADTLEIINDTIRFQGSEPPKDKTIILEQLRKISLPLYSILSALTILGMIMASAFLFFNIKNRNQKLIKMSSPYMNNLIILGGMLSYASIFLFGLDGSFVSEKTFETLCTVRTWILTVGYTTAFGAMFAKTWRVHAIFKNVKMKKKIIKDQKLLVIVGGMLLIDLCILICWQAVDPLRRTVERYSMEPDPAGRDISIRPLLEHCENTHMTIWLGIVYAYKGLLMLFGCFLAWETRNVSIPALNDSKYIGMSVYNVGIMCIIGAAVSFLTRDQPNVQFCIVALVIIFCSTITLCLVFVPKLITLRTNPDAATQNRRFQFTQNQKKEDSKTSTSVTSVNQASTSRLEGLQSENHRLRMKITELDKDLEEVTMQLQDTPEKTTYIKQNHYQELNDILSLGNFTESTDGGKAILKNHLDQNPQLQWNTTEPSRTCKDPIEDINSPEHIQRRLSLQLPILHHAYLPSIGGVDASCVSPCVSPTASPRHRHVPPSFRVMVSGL
Description: (§1) To assess affinity of JON-11 for the GABAB receptor, we employed a GABAB binding assay using rat brain synaptic membranes (Wellendorph et al., 2005). […] B) JON-11 was further assessed for functional activity using CHO cells stably expressing GABAB(1b,2) receptors (Rajalu et al., 2015).

[5] = biological target: T4, GABAB(1b,2) receptors (Homo sapiens, UniProt Q9UBS5); assay: GABAB functional assay in CHO cells; assay type: cell-based; settings: CHO cells stably expressing GABAB(1b,2), concentrations up to 300 µM
T4 construct: expressed in transfected cells
T4 sequence (Q9UBS5 1-844 isoform Q9UBS5-2): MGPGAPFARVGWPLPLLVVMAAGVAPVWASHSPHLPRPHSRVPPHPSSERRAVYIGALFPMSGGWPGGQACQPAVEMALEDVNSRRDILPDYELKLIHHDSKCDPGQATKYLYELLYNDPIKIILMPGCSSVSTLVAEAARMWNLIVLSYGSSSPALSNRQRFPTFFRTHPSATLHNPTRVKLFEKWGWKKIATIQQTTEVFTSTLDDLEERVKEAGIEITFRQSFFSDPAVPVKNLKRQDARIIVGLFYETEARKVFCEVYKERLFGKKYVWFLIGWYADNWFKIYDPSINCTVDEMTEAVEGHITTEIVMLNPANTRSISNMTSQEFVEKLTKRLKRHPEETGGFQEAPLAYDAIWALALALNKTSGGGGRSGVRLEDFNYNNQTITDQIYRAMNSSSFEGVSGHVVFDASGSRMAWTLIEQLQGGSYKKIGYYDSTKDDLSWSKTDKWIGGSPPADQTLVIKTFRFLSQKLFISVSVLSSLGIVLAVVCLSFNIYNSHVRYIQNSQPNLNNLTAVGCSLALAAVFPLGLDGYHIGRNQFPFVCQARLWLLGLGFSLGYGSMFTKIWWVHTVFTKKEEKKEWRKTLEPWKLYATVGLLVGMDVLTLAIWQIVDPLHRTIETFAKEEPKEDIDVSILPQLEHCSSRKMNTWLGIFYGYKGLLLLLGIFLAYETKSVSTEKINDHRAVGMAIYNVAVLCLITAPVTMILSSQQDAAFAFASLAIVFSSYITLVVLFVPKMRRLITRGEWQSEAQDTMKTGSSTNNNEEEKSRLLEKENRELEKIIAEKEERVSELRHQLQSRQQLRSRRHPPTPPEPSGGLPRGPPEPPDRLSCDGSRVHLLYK
T4 sequence (O75899 42-941 partner): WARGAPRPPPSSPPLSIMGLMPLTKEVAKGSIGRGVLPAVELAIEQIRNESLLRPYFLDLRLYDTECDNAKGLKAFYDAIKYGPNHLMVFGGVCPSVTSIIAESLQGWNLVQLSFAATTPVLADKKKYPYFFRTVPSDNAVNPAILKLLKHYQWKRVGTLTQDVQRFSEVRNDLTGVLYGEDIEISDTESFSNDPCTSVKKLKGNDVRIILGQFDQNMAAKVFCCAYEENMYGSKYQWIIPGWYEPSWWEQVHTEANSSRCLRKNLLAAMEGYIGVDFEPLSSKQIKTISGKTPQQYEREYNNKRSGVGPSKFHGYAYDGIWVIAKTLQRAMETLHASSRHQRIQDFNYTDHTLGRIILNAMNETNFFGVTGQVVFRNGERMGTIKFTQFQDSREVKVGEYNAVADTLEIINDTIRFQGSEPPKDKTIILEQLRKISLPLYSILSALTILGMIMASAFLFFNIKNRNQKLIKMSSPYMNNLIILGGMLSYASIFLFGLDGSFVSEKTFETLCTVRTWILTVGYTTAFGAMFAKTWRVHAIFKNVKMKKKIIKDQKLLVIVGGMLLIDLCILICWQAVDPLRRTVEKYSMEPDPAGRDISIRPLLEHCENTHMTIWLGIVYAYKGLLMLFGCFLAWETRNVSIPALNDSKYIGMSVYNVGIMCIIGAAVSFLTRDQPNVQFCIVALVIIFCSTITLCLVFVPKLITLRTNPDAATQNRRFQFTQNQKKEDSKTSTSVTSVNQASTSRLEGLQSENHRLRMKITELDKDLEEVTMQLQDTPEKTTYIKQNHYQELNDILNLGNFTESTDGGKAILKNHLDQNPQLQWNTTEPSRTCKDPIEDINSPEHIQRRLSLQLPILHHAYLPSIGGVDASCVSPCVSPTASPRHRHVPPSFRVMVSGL
Description: as §1

[6] = system: mice; assay type: in vivo; settings: 100 mg/kg i.p.
Method: To determine locomotor effects (e.g. sedation or hyperactivity) compounds were assessed after systemic administration to mice. Mice (typically n=5-8) were administered selected compounds, e.g. JON-11 and pro-JON-11 and vehicle controls, and placed in transparent cages (L: 37 cm x W: 21 cm x H: 15 cm). Locomotor activity were measured via a camera mounted above the arena. Mice will be recorded for 45 min and data collected in 5-min intervals. Data will be stored on a computer equipped with Ethovision XT (Noldus).

[7] = system: GABAA receptors; assay: Affinity for GABAA receptors; assay type: binding

**Q.** With `O=C(O)Cc1cn2nc(-c3ccc(Cl)cc3)ccc2n1` [JON-11, 2-(6-(4-Chlorophenyl)imidazo[1,2-b]pyridazin-2-yl)acetic acid] as the compound, how does the Ki [1] read?
**A.** Its Ki is 0.22 µM.

**Q.** What about the Ki ([2]; 5 nM [3H]HOCPCA, whole cell lysates of CaMK2a-transfected HEK293T cells) of the same compound?
**A.** Its Ki is 3.5 µM.

**Q.** And the “higher affinity compared to GHB” value ([2]; ratio of Ki values, [3H]HOCPCA binding)?
**A.** Its value is 14 x.

**Q.** And the “Chemical or enzymatic degradation” value [3]?
**A.** The value was “not observed”.

**Q.** What about the “ability to compete with [3H]GABA” value [4] of the same compound?
**A.** The value was “no ability to compete”.

**Q.** And the “agonistic activity at recombinant GABAB receptors” value [5]?
**A.** Its value is “not a GABAB agonist; also recorded: Lack of agonistic activity”.

**Q.** And the locomotor activity [6]?
**A.** Its locomotor activity is “does not affect locomotor activity”.

**Q.** What about the “affinity for GABAA receptors” value [7] of the same compound?
**A.** Its value is “weak affinity”.
